Test results: patent US5892063A (Hauser, Inc., priority 1997, dated 1999)

Assays:
[1] = system: cell line panel (leukemia, non-small-cell lung cancer, colon, CNS, melanoma, ovarian, renal, prostate and breast cancers); assay: SRB growth screen, whole cell line panel; type: cell-based
Experimental: The screening assay is performed on 96-well microtitre plates. […] Duplicate wells are prepared for all concentrations; "time-zero" and "nodrug" controls are also provided for each test. […] One hundred microliters of SRB solution (0.4% w/v in 1% acetic acid) is added to each microtitre well and incubated for 10 minutes at room temperature.
The response parameters GI50 and LC50 are interpolated values representing the concentrations at which the percentage growth (PG) is +50 and -50 respectively:
GI50 is the concentration for which the PG=+50.
TGI is the concentration for which PG=0.
LC50 is the concentration for which the PG=-50. […] This is interpreted as cytotoxicity.
The data represented in Table I is graphically represented in FIGS. 1a and 1b through FIGS. 9a and 9b. […] The following is an example of how the information in Table I and in the Figures is interpreted.

SNB-75 = assay: SRB growth screen, CNS cancer SNB-75; conditions: Homo sapiens, SNB-75, 48 h
HS 578T = assay: SRB growth screen, breast cancer HS 578T; conditions: Homo sapiens, 48 h
microtubule = conditions: cited from earlier work
[2] = read-out: Log10 GI50 (converted)
[3] = read-out: Log10 LC50 (converted)

| SMILES | potency as compared to paclitaxel ([1]; on the whole, all cell lines) | Log10 TGI, Range ([1]; range over cell lines (log10 units)) | GI50 (SNB-75; [2]) [µM] | CC50 (SNB-75; [3]) [µM] | GI50 (HS 578T; [2]) [µM] | CC50 (HS 578T; [3]) [µM] | IC (TGI) (HS 578T; read-out: Log10 TGI) [µM] | effect on microtubules (microtubule) |
| --- | --- | --- | --- | --- | --- | --- | --- | --- |
| CC(=O)O[C@H]1C(=O)[C@@]2(C)[C@H]([C@H](OC(=O)c3ccccc3)[C@]3(O)C[C@H](OC(=O)[C@H](O)[C@@H](NC(=O)C4(C)OC4C)c4ccccc4)C(C)=C1C3(C)C)[C@]1(OC(C)=O)CO[C@@H]1C[C@@H]2O (some centres unmarked) [Ceph-epoxide, cephalomannine epoxide] | equivalent to and in many instances greater than that of paclitaxel's | 4.00 | < 0.01 | > 100 | < 0.01 | > 100 | 0.055 | – |
| CC(=O)O[C@H]1C(=O)[C@@]2(C)[C@H]([C@H](OC(=O)c3ccccc3)[C@]3(O)C[C@H](OC(=O)[C@H](O)[C@@H](NC(=O)c4ccccc4)c4ccccc4)C(C)=C1C3(C)C)[C@]1(OC(C)=O)CO[C@@H]1C[C@@H]2O [Paclitaxel, paclitaxel, reference compound] | – | – | – | – | – | – | – | stabilizes microtubules and inhibits depolymerization back to tubulin |
